How the values were obtained:
Mus musculus [1] = assay: Inhibition of 8-OH-DPAT-induced hypothermia in Swiss albino mouse assessed as change in rectal body temperature at 0.3 mg/kg, sc pretreated with compound for 45 mins followed by 8-OH-DPAT challenge and measured after 15 min by thermometer (reference value: -1.8 degreeC); format: functional, organism-based; conditions: time 60.0 min
Mus musculus [2] = assay: Inhibition of 8-OH-DPAT-induced hypothermia in Swiss albino mouse assessed as change in rectal body temperature at 0.3 mg/kg, sc pretreated with compound for 45 mins followed by 8-OH-DPAT challenge and measured after 30 min by thermometer (reference value: -1.7 degreeC); format: functional, organism-based; conditions: time 75.0 min
Mus musculus [3] = assay: Inhibition of 8-OH-DPAT-induced hypothermia in Swiss albino mouse assessed as change in rectal body temperature at 0.3 mg/kg, sc pretreated with compound for 45 mins followed by 8-OH-DPAT challenge and measured after 45 min by thermometer (reference value: -1.3 degreeC); format: functional, organism-based; conditions: time 90.0 min
Mus musculus [4] = assay: Inhibition of 8-OH-DPAT-induced hypothermia in Swiss albino mouse assessed as change in rectal body temperature at 0.3 mg/kg, sc pretreated with compound for 45 mins followed by 8-OH-DPAT challenge and measured after 60 min by thermometer (reference value: -1.3 degreeC); format: functional, organism-based; conditions: time 105.0 min
[5] = Effect on 8-OH-DPAT-induced lower lip retraction in Wistar rat at 0.1 mg/kg, sc pretreated with compound for 45 mins followed by 8-OH-DPAT challenge and measured after 15 mins (reference value: 2.7 to 2.8); format: functional; conditions: time 60 min, 1 h
[6] = Effect on 8-OH-DPAT-induced lower lip retraction in Wistar rat at 0.2 mg/kg, sc pretreated with compound for 15 mins followed by 8-OH-DPAT challenge and measured after 15 mins (reference value: 2.7 to 2.8); conditions: time 30 min, 0.5 h

COc1ccccc1N1CCN(CCN(C(=O)C2CCCCC2)c2ccccn2)CC1 [WAY-100,635]
deltaT (Mus musculus [1]): -0.6 °C | deltaT (Mus musculus [2]): -0.8 °C | deltaT (Mus musculus [3]): -0.5 °C | deltaT (Mus musculus [4]): -0.2 °C | Activity [5]: 1.4 | Activity [6]: 1.3
